According to the NIST ThermoML archive (doi:10.1016/j.jct.2005.03.020):
± gives the expanded uncertainty stated by the source.

Tests used:
[1] = excess molar enthalpy (molar enthalpy of mixing); xn = mol fraction of the nth substance listed; conditions: 298.15 K, 101.33 kPa, Liquid
[2] = xn = mol fraction of the nth substance listed; conditions: 298.15 K, 101.33 kPa, Liquid

ClCCCl [1,2-dichloroethane] + CCOC(C)=O
Conditions | excess molar enthalpy [kcal/mol] | mass density [kg/m3]
[1], x2 = 0.0368 | -0.00939 ± 0.000526 | –
[1], x2 = 0.0819 | -0.021 ± 0.000693 | –
[1], x2 = 0.131 | -0.0345 ± 0.000908 | –
[1], x2 = 0.1846 | -0.0491 ± 0.00115 | –
[1], x2 = 0.2408 | -0.0642 ± 0.00136 | –
[1], x2 = 0.295 | -0.0779 ± 0.00158 | –
[1], x2 = 0.3419 | -0.0867 ± 0.00172 | –
[1], x2 = 0.3836 | -0.0935 ± 0.00182 | –
[1], x2 = 0.4244 | -0.101 ± 0.00194 | –
[1], x2 = 0.46 | -0.106 ± 0.00201 | –
[1], x2 = 0.4728 | -0.107 ± 0.00203 | –
[1], x2 = 0.4972 | -0.108 ± 0.00203 | –
[1], x2 = 0.5087 | -0.108 ± 0.00203 | –
[1], x2 = 0.5523 | -0.107 ± 0.00203 | –
[1], x2 = 0.604 | -0.104 ± 0.00198 | –
[1], x2 = 0.6668 | -0.0965 ± 0.00186 | –
[1], x2 = 0.747 | -0.0807 ± 0.00163 | –
[1], x2 = 0.8328 | -0.058 ± 0.00127 | –
[1], x2 = 0.9184 | -0.0322 ± 0.000884 | –
[2], x2 = 0.0497 | – | 1223.67 ± 0.78
[2], x2 = 0.0983 | – | 1202.79 ± 0.73
[2], x2 = 0.1492 | – | 1181.45 ± 0.68
[2], x2 = 0.1997 | – | 1160.95 ± 0.64
[2], x2 = 0.2524 | – | 1140.18 ± 0.59
[2], x2 = 0.3059 | – | 1119.62 ± 0.55
[2], x2 = 0.3618 | – | 1098.71 ± 0.5
[2], x2 = 0.4184 | – | 1078.16 ± 0.46
[2], x2 = 0.4765 | – | 1057.68 ± 0.42
[2], x2 = 0.5356 | – | 1037.35 ± 0.38
[2], x2 = 0.5982 | – | 1016.38 ± 0.34
[2], x2 = 0.6603 | – | 996.21 ± 0.32
[2], x2 = 0.7247 | – | 975.88 ± 0.35
[2], x2 = 0.7893 | – | 955.96 ± 0.38
[2], x2 = 0.857 | – | 935.65 ± 0.41
[2], x2 = 0.928 | – | 914.85 ± 0.45

ClCCCCl [1,3-dichloropropane] + CCCC(=O)OCC
Conditions | excess molar enthalpy [kcal/mol] | mass density [kg/m3]
[1], x2 = 0.045 | -0.00619 ± 0.000478 | –
[1], x2 = 0.0966 | -0.0152 ± 0.000621 | –
[1], x2 = 0.1504 | -0.0234 ± 0.000741 | –
[1], x2 = 0.2076 | -0.0352 ± 0.000908 | –
[1], x2 = 0.2635 | -0.0452 ± 0.00108 | –
[1], x2 = 0.3171 | -0.0564 ± 0.00124 | –
[1], x2 = 0.3678 | -0.0673 ± 0.00141 | –
[1], x2 = 0.4155 | -0.0743 ± 0.00153 | –
[1], x2 = 0.4596 | -0.0781 ± 0.00158 | –
[1], x2 = 0.5012 | -0.0799 ± 0.0016 | –
[1], x2 = 0.5417 | -0.0797 ± 0.0016 | –
[1], x2 = 0.605 | -0.0778 ± 0.00158 | –
[1], x2 = 0.6754 | -0.071 ± 0.00148 | –
[1], x2 = 0.7523 | -0.0583 ± 0.00127 | –
[1], x2 = 0.8348 | -0.0428 ± 0.00103 | –
[1], x2 = 0.9216 | -0.0239 ± 0.000741 | –
[2], x2 = 0.0446 | – | 1159.59 ± 0.83
[2], x2 = 0.088 | – | 1141.99 ± 0.82
[2], x2 = 0.1341 | – | 1124.03 ± 0.8
[2], x2 = 0.1825 | – | 1105.75 ± 0.79
[2], x2 = 0.2294 | – | 1088.7 ± 0.79
[2], x2 = 0.2836 | – | 1069.63 ± 0.78
[2], x2 = 0.3377 | – | 1051.42 ± 0.78
[2], x2 = 0.3924 | – | 1033.68 ± 0.78
[2], x2 = 0.4475 | – | 1016.45 ± 0.78
[2], x2 = 0.5058 | – | 998.9 ± 0.79
[2], x2 = 0.5686 | – | 980.73 ± 0.82
[2], x2 = 0.6322 | – | 963.09 ± 0.84
[2], x2 = 0.6986 | – | 945.45 ± 0.88
[2], x2 = 0.7724 | – | 926.66 ± 0.91
[2], x2 = 0.8405 | – | 910.03 ± 0.94

ClCCCCCCCl [1,6-dichlorohexane] + CCOC(=O)CC
[2]
Conditions | mass density [kg/m3]
x2 = 0.0733 | 1053.16 ± 1.1
x2 = 0.144 | 1042.66 ± 1
x2 = 0.2117 | 1032.32 ± 0.98
x2 = 0.2775 | 1021.98 ± 0.93
x2 = 0.3418 | 1011.56 ± 0.88
x2 = 0.4104 | 1000.12 ± 0.83
x2 = 0.5264 | 979 ± 0.77
x2 = 0.5884 | 968.62 ± 0.74
x2 = 0.7491 | 937.72 ± 0.68
x2 = 0.8052 | 926.3 ± 0.67
x2 = 0.8547 | 915.96 ± 0.66
x2 = 0.905 | 905.21 ± 0.65
x2 = 0.9513 | 894.99 ± 0.64

ClCCCCCCCl [1,6-dichlorohexane] + CCOC=O
[2]
Conditions | mass density [kg/m3]
x2 = 0.1021 | 1054.55 ± 1.2
x2 = 0.1921 | 1045.86 ± 1.2
x2 = 0.2781 | 1036.7 ± 1.2
x2 = 0.357 | 1027.68 ± 1.3
x2 = 0.4266 | 1019.06 ± 1.3
x2 = 0.4923 | 1010.37 ± 1.3
x2 = 0.5555 | 1001.35 ± 1.3
x2 = 0.6677 | 983.71 ± 1.4
x2 = 0.7169 | 975.18 ± 1.4
x2 = 0.7649 | 966.4 ± 1.4
x2 = 0.8091 | 957.78 ± 1.4
x2 = 0.8515 | 949.08 ± 1.4
x2 = 0.8915 | 940.41 ± 1.4
x2 = 0.929 | 931.82 ± 1.4
x2 = 0.9647 | 923.23 ± 1.5

CCOC=O [ethyl methanoate] + ClCCCl
[2]
Conditions | mass density [kg/m3]
x1 = 0.0604 | 1224.56 ± 0.82
x1 = 0.1183 | 1204.73 ± 0.82
x1 = 0.175 | 1185.45 ± 0.84
x1 = 0.2911 | 1146.17 ± 0.89
x1 = 0.3483 | 1126.98 ± 0.92
x1 = 0.4068 | 1107.45 ± 0.96
x1 = 0.4649 | 1088.21 ± 1
x1 = 0.5246 | 1068.52 ± 1.1
x1 = 0.5831 | 1049.26 ± 1.1
x1 = 0.6432 | 1029.61 ± 1.1
x1 = 0.7012 | 1010.71 ± 1.2
x1 = 0.758 | 992.23 ± 1.2
x1 = 0.817 | 973.15 ± 1.3
x1 = 0.8778 | 953.5 ± 1.4
x1 = 0.9362 | 934.65 ± 1.4

CCOC(=O)CC [ethyl propanoate] + ClCCCl
[2]
Conditions | mass density [kg/m3]
x1 = 0.0458 | 1221.49 ± 0.78
x1 = 0.0867 | 1201.01 ± 0.74
x1 = 0.131 | 1179.33 ± 0.7
x1 = 0.1761 | 1158.4 ± 0.66
x1 = 0.225 | 1136.63 ± 0.62
x1 = 0.2733 | 1116.14 ± 0.58
x1 = 0.3272 | 1094.1 ± 0.55
x1 = 0.3811 | 1073.16 ± 0.52
x1 = 0.4371 | 1052.35 ± 0.49
x1 = 0.4963 | 1031.27 ± 0.47
x1 = 0.5583 | 1010.27 ± 0.45
x1 = 0.6235 | 989.23 ± 0.46
x1 = 0.69 | 968.72 ± 0.49
x1 = 0.7598 | 948.13 ± 0.52
x1 = 0.835 | 927.04 ± 0.56
x1 = 0.9131 | 906.11 ± 0.6
